Assay results from patent US20200331904A1, “3-AMINO-[1,2,4]-TRIAZOLE DERIVATIVES AND THEIR USE FOR CONTROLLING UNDESIRED PLANT GROWTH” (Bayer CropScience Aktiengesellschaft, priority 2017, published 2020).

Key:
Format in all cases: in vivo
[1] = system: Stellaria media; test: Pre-emergence herbicidal efficacy, STEME; settings: scored visually after about 3 weeks vs untreated controls
From the text: (§1) C.1 Pre-Emergence Herbicidal Action and Crop Plant Compatibility
(§2) Seeds of monocotyledonous and dicotyledonous weed plants and crop plants are placed in plastic or organic planting pots and covered with soil. The compounds of the invention, formulated in the form of wettable powders (WP) or as emulsion concentrates (EC), are then applied onto the surface of the covering soil as aqueous suspension or emulsion with addition of 0.5% additive at a water application rate of […] (converted). After the treatment, the pots are placed in a greenhouse and kept under good growth conditions for the trial plants. After about 3 weeks, the effect of the preparations is scored visually in comparison with untreated controls as percentages. For example, 100% activity=the plants have died, 0% activity=like control plants.
(§3) ABUTH: Abutilon theophrasti ALOMY: Alopecurus myosuroides AMARE: Amaranthus retroflexus AVEFA: Avena fatua CYPES: Cyperus esculentus ECHCG: Echinochloa crus-galli LOLMU: Lolium multiflorum MATIN: Matricaria inodora PHBPU: Ipomoea purpurea POLCO: Polygonum convolvulus SETVI: Setaria viridis STEME: Stellaria media VERPE: Veronica persica VTOTR: Viola tricolor

[2] = system: Veronica persica; test: Pre-emergence herbicidal efficacy, VERPE; settings: scored visually after about 3 weeks vs untreated controls
From the text: as §1, §2, §3

[3] = system: Amaranthus retroflexus; test: Pre-emergence herbicidal efficacy, AMARE; settings: scored visually after about 3 weeks vs untreated controls
From the text: as §1, §2, §3

[4] = system: Viola tricolor; test: Pre-emergence herbicidal efficacy, VIOTR; settings: scored visually after about 3 weeks vs untreated controls
From the text: as §1, §2, §3

[5] = system: Matricaria inodora; test: Pre-emergence herbicidal efficacy, MATIN; settings: scored visually after about 3 weeks vs untreated controls
From the text: as §1, §2, §3

[6] = system: Polygonum convolvulus; test: Pre-emergence herbicidal efficacy, POLCO; settings: scored visually after about 3 weeks vs untreated controls
From the text: as §1, §2, §3

[7] = system: Echinochloa crus-galli; test: Pre-emergence herbicidal efficacy, ECHCG; settings: Table B1, application rate 320 g/ha, scored visually after about 3 weeks vs untreated controls
From the text: as §1, §2, §3

[8] = system: Setaria viridis; test: Pre-emergence herbicidal efficacy, SETVI; settings: Table B1, application rate 320 g/ha, scored visually after about 3 weeks vs untreated controls
From the text: as §1, §2, §3

[9] = system: Abutilon theophrasti; test: Pre-emergence herbicidal efficacy, ABUTH; settings: Table B1, application rate 320 g/ha, scored visually after about 3 weeks vs untreated controls
From the text: as §1, §2, §3

[10] = Table B2, application rate 320 g/ha
[11] = Table B1, application rate 320 g/ha

| SMILES | Herbicidal efficacy against STEME [1, 10] [%] | Herbicidal efficacy against VERPE [2, 10] [%] | Herbicidal efficacy against AMARE [3, 10] [%] | Herbicidal efficacy against VIOTR [4, 10] [%] | Herbicidal efficacy against MATIN [5, 10] [%] | Herbicidal efficacy against POLCO [6, 10] [%] | Herbicidal efficacy against POLCO [6, 11] [%] | Herbicidal efficacy against ECHCG [7] [%] | Herbicidal efficacy against STEME [1, 11] [%] | Herbicidal efficacy against SETVI [8] [%] | Herbicidal efficacy against ABUTH [9] [%] | Herbicidal efficacy against VERPE [2, 11] [%] | Herbicidal efficacy against AMARE [3, 11] [%] | Herbicidal efficacy against VIOTR [4, 11] [%] | Herbicidal efficacy against MATIN [5, 11] [%] |
| --- | --- | --- | --- | --- | --- | --- | --- | --- | --- | --- | --- | --- | --- | --- | --- |
| CC(=O)N1CCCn2nc(NC3CCc4ccc(C)cc43)nc21 (stereo not shown) [Example I-320] | 100 | 100 | 90 | 100 | 100 | – | – | – | – | – | – | – | – | – | – |
| Cc1ccc2c(c1)C(Nc1nc3n(n1)CCCN3S(C)(=O)=O)CCC2 (stereo not shown) [Example I-329] | 100 | 100 | 100 | 100 | 100 | 100 | – | – | – | – | – | – | – | – | – |
| O=S(=O)(C1CC1)N1CCCn2nc(NC3CCCc4ccccc43)nc21 (stereo not shown) [Example I-333] | 100 | 100 | 100 | 100 | – | 100 | – | – | – | – | – | – | – | – | – |
| Cc1ccc2c(c1)C(Nc1nc3n(n1)CCCN3S(=O)(=O)C1CC1)CC2 (stereo not shown) [Example I-336] | 100 | 100 | 100 | 100 | 100 | – | – | – | – | – | – | – | – | – | – |
| CCN1CCn2nc(N[C@@H]3CCCc4ccc(C)cc43)nc2C1 [Example I-343] | 100 | 100 | 100 | 100 | 100 | – | – | – | – | – | – | – | – | – | – |
| Cc1ccc2c(c1)[C@H](Nc1nc3n(n1)CCCS3)CC2 [Example I-347] | – | – | – | – | – | – | 100 | 100 | 100 | 100 | 100 | 100 | 100 | 100 | 100 |
| c1ccc2c(c1)CCC[C@H]2Nc1nc2n(n1)CCCS2 [Example I-349] | 100 | 100 | 100 | 100 | 100 | 100 | – | – | – | – | – | – | – | – | – |
| [O-][S+]1CCCn2nc(N[C@@H]3CCCc4ccccc43)nc21 (stereo partly shown) [Example I-361] | 100 | 100 | 100 | 100 | 100 | 100 | – | – | – | – | – | – | – | – | – |
| CC1CCc2ccccc2C1Nc1nc2n(n1)CCC[S+]2[O-] (stereo not shown) [Example I-362] | 100 | 100 | 100 | 100 | 100 | 100 | – | – | – | – | – | – | – | – | – |
| O=S1(=O)CCCCn2nc(N[C@@H]3CCc4ccccc43)nc21 [Example I-364, N-[(1R)-indan-1-yl]-4,4-dioxo-5,6,7,8-tetrahydro-[1,2,4]triazolo[5,1-b][1,3]thiazepin-2-amine] | 100 | 100 | 100 | 100 | 100 | 100 | – | – | – | – | – | – | – | – | – |
| CC1CCc2ccccc2C1Nc1nc2n(n1)CCCCS2(=O)=O (stereo not shown) [Example I-368] | 100 | 100 | 100 | 100 | 100 | – | – | – | – | – | – | – | – | – | – |
| CC1CCc2ccccc2C1Nc1nc2n(n1)CCCC[S+]2[O-] (stereo not shown) [Example I-373] | 100 | 100 | 100 | 100 | 100 | 100 | – | – | – | – | – | – | – | – | – |
| Cc1ccc2c(c1)[C@H](Nc1nc3n(n1)CCCS3(=O)=O)CCO2 [Example I-378] | 100 | 100 | 100 | 100 | 100 | 100 | – | – | – | – | – | – | – | – | – |
